Results on eight molecules are retold here after patent US20240382475A1, “Quinazoline Derivative, Or Preparation Method Therefor And Use Thereof” (Zhejiang Hisun Pharmaceutical Co., Ltd., priority 2021, published 2024).

One assay concerns the target T1, KRAS-G12C/SOS1 (Homo sapiens, UniProt Q07889).
T1 construct: purchased Cisbio 63ADK000CB16PEG
T1 sequence (Q07889 1-1333): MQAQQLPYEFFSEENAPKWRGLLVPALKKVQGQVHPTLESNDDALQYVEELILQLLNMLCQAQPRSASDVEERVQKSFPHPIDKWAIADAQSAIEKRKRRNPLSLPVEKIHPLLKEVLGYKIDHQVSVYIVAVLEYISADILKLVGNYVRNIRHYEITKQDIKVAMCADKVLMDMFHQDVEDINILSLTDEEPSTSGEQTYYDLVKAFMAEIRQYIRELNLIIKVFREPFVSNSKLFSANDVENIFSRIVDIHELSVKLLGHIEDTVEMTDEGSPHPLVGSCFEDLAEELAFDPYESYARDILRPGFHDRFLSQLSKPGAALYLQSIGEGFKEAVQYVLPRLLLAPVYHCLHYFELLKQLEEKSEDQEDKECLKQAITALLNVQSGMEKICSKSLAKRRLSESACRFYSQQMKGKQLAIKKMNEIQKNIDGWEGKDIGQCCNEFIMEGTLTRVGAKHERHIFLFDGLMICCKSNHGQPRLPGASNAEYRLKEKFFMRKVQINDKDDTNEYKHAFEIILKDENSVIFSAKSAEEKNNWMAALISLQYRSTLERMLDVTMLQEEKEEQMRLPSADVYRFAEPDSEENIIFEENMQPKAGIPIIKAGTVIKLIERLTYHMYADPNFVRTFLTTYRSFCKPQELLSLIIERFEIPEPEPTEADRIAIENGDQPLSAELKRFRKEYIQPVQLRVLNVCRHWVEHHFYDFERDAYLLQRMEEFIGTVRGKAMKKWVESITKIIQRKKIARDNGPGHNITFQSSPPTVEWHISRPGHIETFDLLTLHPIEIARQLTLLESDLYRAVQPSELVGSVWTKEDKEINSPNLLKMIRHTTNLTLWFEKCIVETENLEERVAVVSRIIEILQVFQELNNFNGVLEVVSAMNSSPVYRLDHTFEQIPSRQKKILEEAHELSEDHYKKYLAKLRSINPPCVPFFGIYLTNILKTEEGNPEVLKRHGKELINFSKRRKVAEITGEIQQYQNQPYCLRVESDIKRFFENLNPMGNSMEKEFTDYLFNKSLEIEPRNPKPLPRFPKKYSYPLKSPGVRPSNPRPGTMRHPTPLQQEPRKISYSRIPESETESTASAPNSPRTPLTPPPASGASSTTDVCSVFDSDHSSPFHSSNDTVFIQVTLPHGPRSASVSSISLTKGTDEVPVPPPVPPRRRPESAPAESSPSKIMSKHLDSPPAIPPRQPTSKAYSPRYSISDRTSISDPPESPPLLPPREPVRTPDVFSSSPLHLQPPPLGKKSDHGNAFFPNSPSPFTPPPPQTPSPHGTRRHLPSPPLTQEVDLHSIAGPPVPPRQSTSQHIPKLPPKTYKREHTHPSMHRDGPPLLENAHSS
Put plainly: Blocking the binding of KRAS G12C protein to SOS1 (Cisbio KRAS-G12C/SOS1 binding assay kit, TR-FRET). Particulars: Tag1-SOS1 and Tag2-KRAS-G12C, TR-FRET 665/620; read-out: IC50 (nM) Inhibition of KRAS-G12C/SOS1 binding. From the text: The following method was used to determine the abilities of compounds of the invention to block the interaction of SOS1 with the KRAS G12C protein in vitro. KRAS-G12C/SOS1 BINDING ASSAY KITS (Art. No. 63ADK000CB16PEG) from Cisbio was used in this method. Please refer to the kit instruction for detailed experimental operations.
The experimental process can be briefly described as follows: diluent buffer (Art. No. 62DLBDDF) was used to prepare a working solution with a concentration of 5× for Tag1-SOS1 and Tag2-KRAS-G12C protein. The test compounds were dissolved in DMSO to prepare storage solutions of 10 mM, and then the solutions were diluted with dilution buffer for later use. First, 2 μL of the test compound (the final concentrations of the reaction system were 10000 nM-0.1 nM) was added to the well, then 4 μL of Tag1-SOS1 5× working solution and 4 μL of Tag2-KRAS-G12C 5× working solution were added, and the above mixture was centrifuged, mixed, and stood for 15 minutes; then 10 μL of premixed anti-Tag1-Tb^3+ and anti-Tag2-XL665 were added, and the mixture was incubated at room temperature for 2 hours; finally, a microplate reader was used in […] mode to measure the fluorescence intensity of each well emitting wavelengths of 620 nm and […] under the excitation wavelength of 304 nm, and the fluorescence intensity ratio 665/620 in each well was calculated. Compared with the fluorescence intensity ratio of a control group (0.1% DMSO), the percentage inhibition rates of the test compounds at each concentration were calculated, and the IC50 values of the compounds were obtained by performing nonlinear regression analysis with logarithmic values of the compound concentration-inhibition rate by GraphPad Prism 5 software, which was shown in Table 1.
On the technique in general: Time-resolved FRET reads energy transfer from a long-lived donor to a nearby acceptor.

Another assay relates to OCI-AML5 cells. Nature of the assay: Inhibition of OCI-AML5 cell proliferation (CellTiter-Glo). In kind it is cell-based. Particulars: Homo sapiens, OCI-AML-5; OCI-AML5 cells (SOS1 N233Y mutation), 120 hours. How it is done: The following method was used to determine the influence of the compounds of the present invention on OCI-AML5 cells proliferation. OCI-AML5 cells (containing SOS1 N233Y mutation) were purchased from Nanjing Kebai Biotechnology Co., Ltd. and cultured in MEMα medium containing 10% fetal bovine serum, 100 U penicillin, and 100 μg/mL streptomycin. The activities of the cells were determined by CellTiter-Glo® Luminescent Cell Viability Assay Kit (Promega, Art. No. G7573).
The experimental method was operated according to the steps in the kit instruction, which were briefly described as follows: the test compounds were first dissolved in DMSO to prepare storage solutions of 10 mM, and then diluted with culture mediums to prepare test samples. The final concentrations of the compounds were 10000 nM to 0.15 nM. Cells in logarithmic phase were inoculated in a 96-well cell culture plate with 1,000 cells per well, after cultured overnight in 5% CO2 incubator at 37° C., the test compounds were added to the incubator to continue the culture for 120 hours. After the culture was completed, 50 μL of CellTiter-Glo detection solution was added to each well, shaken for 5 minutes and then stood for 10 minutes. Then, a Luminescence mode was used to read the luminescence values of each well of the samples on a microplate reader.
(Cellular ATP, detected with luciferase, serves as a proxy for viable cell number.)

The next assay relates to p-ERK1/2 in DLD-1 cells. Nature of the assay: Inhibition of p-ERK1/2 in DLD-1 cells (Cisbio Advanced phospho-ERK1/2 kit). The class given is cell-based. To be noted: Homo sapiens; DLD-1 cells (KRAS G13D mutation), hEGF 5 nM stimulation; read-out: IC50 (nM) Inhibition on p-ERK½ in DLD-1 cells. From the text:
The following method was used to determine the inhibition activities of the compounds of the present invention on p-ERK1/2 in DLD-1 cells. The Advanced phospho-ERK1/2 (Thr202/tyr2O4) kit (Art. No. 64AERPEH) from Cisbio was used in this method. Please refer to the kit instruction for detailed experimental operations. DLD-1 cells (containing KRAS G13D mutation) were purchased from the Cell Resource Center of Shanghai Institutes for Biological Sciences, Chinese Academy of Sciences.
The experimental process can be briefly described as follows: DLD-1 cells were cultured in RPMI 1640 complete medium containing 10% fetal bovine serum, 100 U penicillin, 100 μg/mL streptomycin and 1 mM Sodium Pyruvate. DLD-1 cells were plated in a 96-well plate at 30,000 cells per well, after cultured overnight in 5% CO2 incubator at 37° C. with complete culture medium. The test compounds were dissolved in DMSO to prepare storage solutions of 10 mM, and then diluted with RPMI 1640 basic mediums. 90 μL of RPMI 1640 basic mediums containing the test compounds at the corresponding concentration were added to each well. The final concentrations of the test compounds in the reaction system were 10,000 nM to 0.15 nM, and were placed in a cell culture incubator for 3 hours and 40 minutes. Subsequently, 10 μL of hEGF (purchased from Roche, Art. No. 11376454001) prepared with RPMI 1640 basic medium was added to a final concentration of 5 nM, and placed in the incubator for culturing for 20 minutes. The cell supernatant was discarded, and the cells were washed with PBS on ice-bath. Then, 45 μl of 1× cell phospho/total protein lysis buffer (component of Advanced phospho-ERK1/2 kit) was added to each well for lysis. The 96-well plate was placed on ice for 0.5 hours to lyse, and then the lysate was detected according to the instruction of the Advanced phospho-ERK1/2 (Thr202/tyr2O4) kit. Finally, the microplate reader was used in […] mode to measure the fluorescence intensity of each well emitting wavelengths of 620 nm and […] under the excitation wavelength of 304 nm, and the fluorescence intensity ratio 665/620 in each well was calculated. By comparing with the fluorescence intensity ratio of a control group (0.1% DMSO), the percentage inhibition rates of the test compounds at each concentration were calculated, and the IC50 values of the compounds were obtained by performing nonlinear regression analysis with logarithmic values of the compound concentration-inhibition rate by GraphPad Prism 5 software, which can be seen in Table 3.

The subject of another assay is NCI-H358 cells. Put plainly: Inhibition of NCI-H358 cell proliferation under 3D non-anchored conditions (CellTiter-Glo 3D). In kind it is cell-based. To be noted: Homo sapiens, NCI-H358 cells (KRAS G12C mutation), 120 hours. The method, then:
The following method was used to determine the effects of the compounds of the present invention on NCI-H358 cell proliferation under three-dimensional (3D) non-anchored conditions. NCI-H358 cells (containing KRAS G12C mutation) were purchased from the Cell Resource Center of Shanghai Institutes for Biological Sciences, Chinese Academy of Sciences, and cultured in RPMI 1640 medium containing 10% fetal bovine serum, 100 U penicillin, 100 μg/mL streptomycin and 1 mM Sodium Pyruvate. The activities of the cells were determined by CellTiter-Glo® 3D Cell Viability Assay Kit (Promega, Art. No. G9683).
The experimental method was operated according to the steps in the kit instruction, which can be briefly described as follows: the test compounds were first dissolved in DMSO to prepare storage solutions of 10 mM, and then diluted with culture mediums to prepare test samples. The final concentrations of the compounds were 10000 nM to 0.15 nM. Cells in logarithmic phase were inoculated in an ultra-low adsorption 384-well cell culture plate (PerkinElmer, #3830) with 2000 cells per well, and the test compounds were added and cultured for 120 hours. After the culture was completed, 30 μL of CellTiter-Glo 3D detection solution was added to each well, shaken for 30 minutes and then stood for 120 minutes. Then, a Luminescence mode was used to read the luminescence values of each well of the samples on a microplate reader. By comparing with the numerical value of a control group (0.1% DMSO), the percentage inhibition rates of the compounds at each concentration were calculated, and the IC50 values of the compounds inhibiting cell proliferation were obtained by performing nonlinear regression analysis with logarithmic values of the compound concentration-inhibition rate by GraphPad Prism 5 software, which can be seen in Table 4.

Regarding `COc1cc2nc(C)nc(N[C@H](C)c3cccc(C#N)c3C)c2cc1N1CCN(C)CC1` [Compound 10, (R)-3-(1-((7-methoxy-2-methyl-6-(4-methylpiperazin-1-yl)quinazolin-4-yl)amino)ethyl)-2-methylbenzonitrile], the IC50 at KRAS-G12C/SOS1 worked out at 36.7 nM; in the assay on OCI-AML5 cells, 16.8 nM. `COc1cc2nc(C)nc(N[C@H](C)c3cccc(C#N)c3C)c2cc1N1CC(C#N)C1` [Compound 12, (R)-1-(4-((1-(3-cyano-2-methylphenyl)ethyl)amino)-7-methoxy-2-methylquinazolin-6-yl)azetidine-3-carbonitrile]: the IC50 stood at 88.4 nM on KRAS-G12C/SOS1 and 23 nM in the assay on OCI-AML5 cells. For `COc1cc2nc(C)nc(N[C@H](C)c3cccc(C#N)c3C)c2cc1N1CCN(S(C)(=O)=O)CC1` [Compound 13, (R)-3-(1-((7-methoxy-2-methyl-6-(4-(methylsulfonyl)piperazin-1-yl)quinazolin-4-yl)amino)ethyl)-2-methylbenzonitrile], the IC50 in the assay on OCI-AML5 cells was determined as 25.4 nM; in the assay on p-ERK1/2 in DLD-1 cells, 73.5 nM. Consider `COc1cc2nc(C)nc(N[C@H](C)c3cccc(C#N)c3C)c2cc1N1CCC(N2CCN(C)CC2)CC1` [Compound 15, (R)-3-(1-((7-methoxy-2-methyl-6-(4-(4-methylpiperazin-1-yl)piperidin-1-yl)quinazolin-4-yl)amino)ethyl)-2-methylbenzonitrile], for which the values for the IC50 on KRAS-G12C/SOS1 and with OCI-AML5 cells were 31.7 nM and 3.7 nM, respectively.

For the molecule `COc1cc2nc(C)nc(N[C@H](C)c3cccc(C#N)c3C)c2cc1N1CCC2(CC1)CNC2` [Compound 16c, (R)-3-(1-((7-methoxy-2-methyl-6-(2,7-diazaspiro[3.5]nonan-7-yl)quinazolin-4-yl)amino)ethyl)-2-methylbenzonitrile], the IC50 at KRAS-G12C/SOS1 was 20.3 nM; with OCI-AML5 cells it was 13.1 nM. As for `COc1cc2nc(C)nc(N[C@H](C)c3cccc(C#N)c3C)c2cc1N1CCC(OC)CC1` [Compound 17, (R)-3-(1-((7-methoxy-6-(4-methoxypiperidin-1-yl)-2-methylquinazolin-4-yl)amino)ethyl)-2-methylbenzonitrile], the IC50 with OCI-AML5 cells was 10.6 nM; in the assay with p-ERK1/2 in DLD-1 cells it was 29.2 nM.

As to `COc1cc2nc(C)nc(N[C@H](C)c3cccc(C#N)c3C)c2cc1N1CCC2(CCN(C(C)=O)CC2)CC1` [Compound 18, (R)-3-(1-((6-(9-acetyl-3,9-diazaspiro[5.5]undecan-3-yl)-7-methoxy-2-methylquinazolin-4-yl)amino)ethyl)-2-methylbenzonitrile], the figures for the IC50 in the assay on OCI-AML5 cells and in the assay on NCI-H358 cells were 2.6 nM and 6.9 nM, respectively. In the case of `COc1cc2nc(C)nc(N[C@H](C)c3cccc(C#N)c3C)c2cc1N1CCN(CCO)CC1` [Compound 20, (R)-3-(1-((6-(4-(2-hydroxyethyl)piperazin-1-yl)-7-methoxy-2-methylquinazolin-4-yl)amino)ethyl)-2-methylbenzonitrile], the IC50 with NCI-H358 cells turned out to be 52.4 nM.
